Test results: patent US20240041764A1, “Sustained-Release Oral Fosamprenavir Formulation for Treatment of Reflux” (The Medical College of Wisconsin, Inc., priority 2022, published 2024)
“Also recorded” adds a separate entry of the source.

Assays:
[1] = prodrug relative to amprenavir; cited from earlier work
[2] = in vivo; cited from earlier work
[3] = test system: LPR mouse model (pepsin-mediated laryngeal damage); test: in vivo LPR mouse model: mechanical injury plus laryngeal pepsin instillation, H&E histology; conditions: for protection against pepsin-mediated laryngeal damage (histology): 0.3 mg/ml pepsin pH7, 4 weeks
Description: Three replicate animals per treatment condition were anticipated to suffice for verification of reproducibility in each experiment without excessive use of animal life. The three mice were randomly allocated to treatment groups. No data were excluded from analysis.
Six-week-old female Jackson A/J mice (Jackson Laboratory, Bar Harbor, ME) were fed D-62 powdered Wattenberg diet, 2 g/mouse/day^95 and allowed to acclimate for one week upon arrival prior to experiments. In accord with previously established methods for modeling aerodigestive tract damage attributed to GERD and LPR,^1,95-99 mechanical injury applied during the first two weeks of a four-week treatment course was used to predispose the laryngeal mucosa to chemical injury by pepsin/acid applied throughout the four weeks. […] Briefly, anesthetized mice were suspended by upper teeth on a slanted board under an operating microscope.
In a preliminary experiment to validate the LPR mouse model (i.e. laryngeal damage by pepsin at neutral and acidic pH), 20 μl saline (solvent control) or 0.3 mg/ml pepsin at pH7.0 or 4.0 were provided to mice (n=3) by laryngeal instillation at 24, 48, and 72 hours after mechanical injury during weeks 1 and 2 (FIG. 6); laryngeal instillation without wounding (3 days/week) continued during weeks 3 and 4. […] Mice were sacrificed at conclusion of the fourth week.
To test the protective effect of HIV protease inhibitors on pepsin-mediated damage in vivo, inhibitors were delivered by aerosol or gavage concurrently with wounding (days 2, 8) and solvent/pepsin instillation (days 3-5, 9-11, 16-18 and 23-25). Aerosol or gavage was provided on days 1-5, 8-12, 15-19, and 22-25, and mice sacrificed day 26. Mice were anesthetized with isoflurane (3% in 2.5LPM, 3-5 minutes prior to procedures) as opposed to Avertin due to frequency. […] Aerosol was generated as described^100. Briefly, a 10 ml suspension of drug in ethanol was placed in the baffle, such that the concentration would remain constant at the equilibrium solubility. Droplets of ethanol containing dissolved drug were generated by an ultrasonic atomizer (nominal frequency 1.7 MHz) and entrained by air at a flow rate of 0.5 LPM with a custom-built glass baffle (UMN Department of Chemistry Glass Shop). The aerosol cloud was then passed through a cylindrical drying column containing an annular ring of charcoal. The ethanol was removed and the emanating dry aerosol particles of pure drug were then directed into the exposure chamber. The mass deposited on filters was measured gravimetrically and total output rate (mg/min) was determined. The aerosol concentration (mass/volume of air) was calculated by dividing the total output rate by the air flow rate (0.5 LPM). The inhaled mass of drug (Minh) for each mouse was defined as Minh=[Aerosol]*RMV*t, where Aerosol is the aerosol concentration of drug, RMV is the respiratory minute volume of the mice (0.025 L/min), and t is the aerosol exposure time. […] Actual mass deposited was not determined but anticipated to be 10% of inhaled mass (the deposition fraction of […] aerosol particles in mice).
Tissues were collected, fixed in paraformaldehyde, embedded in paraffin and 4 um sections stained with hematoxylin and eosin (H&E) via automated stainer. Slides were reviewed by a board-certified pathologist (JM) blinded to treatment groups.

[4] = mice; cited from earlier work
[5] = solubility when preparing co-crystallization solutions; type: physicochemical; conditions: saturated solution in DMSO for co-crystallization; CryoSol SM2 chosen instead
Experimental: Supernatant of saturated saquinivar solution in SM2 was combined with pepsin at 5% f.c. (v/v). Crystallization conditions were optimized by screening 200 mg/ml pepsin in the Salt RX screen (Hampton Research, Viejo, CA). […] Diffraction quality crystals (triangular bi-pyramids, approximately 200×100×100 μm) formed after 2-7 days from hanging drops of 2 ul pepsin (180-210 mg/ml) and 1 ul microseed solution serially diluted 10-100× above 3-4M ammonium chloride and 0.1M sodium acetate trihydrate pH4.6. Crystals were cryoprotected by 30% glucose, 5M ammonium chloride and 0.1 M sodium acetate trihydrate pH4.6 and plunged in liquid nitrogen. Co-crystallization with saquinavir was performed in 0.1M acetic acid rather than sodium acetate trihydrate as this permitted large crystal formation without a microseed; crystals were cryoprotected by 30% w/v glucose, 5M ammonium chloride and 0.1 M sodium acetate trihydrate pH 4.6 and plunged in liquid nitrogen.

porcine pepsin = biological target: T1, porcine pepsin (Sus scrofa, UniProt P00791); test: peptic activity assay, fluorescence polarization with casein-Alexa647; type: biochemical
T1 construct: purchased Worthington Biochemical Corporation
T1 sequence (P00791 60-385): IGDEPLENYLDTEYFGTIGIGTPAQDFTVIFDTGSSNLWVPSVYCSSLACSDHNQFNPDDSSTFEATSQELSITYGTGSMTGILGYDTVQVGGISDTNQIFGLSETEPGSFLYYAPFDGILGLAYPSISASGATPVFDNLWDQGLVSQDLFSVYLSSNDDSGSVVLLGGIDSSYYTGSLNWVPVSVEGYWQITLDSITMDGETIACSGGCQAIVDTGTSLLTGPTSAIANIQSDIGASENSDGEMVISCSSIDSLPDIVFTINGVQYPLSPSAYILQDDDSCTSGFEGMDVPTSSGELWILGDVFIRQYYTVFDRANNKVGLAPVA
Experimental: To examine whether HIV protease inhibitors bound and inhibited pepsin, we developed assays based on fluorescence polarization which measures size-dependent molecular rotation thereby permitting detection of degradation, association and dissociation events^80. A competitive binding assay was designed employing pepstatin, an inhibitor of sub-nanomolar affinity^81. Pepstatin-Alexa647 was synthesized by dissolving 1 mg pepstatin A (Sigma-Aldrich) in a 50:50 mixture of dimethylformamide (DMF) and dimethylsulfoxide (DMS) followed by the addition of N,N,N′,N′-Tetramethyl-O—(N-succinimidyl)uronium tetrafluoroborate (0.6 mg) and trimethylamine (10 μL) DMF. The mixture was stirred for 1 hour, after which 1 mg Alexa Fluor 647 Cadaverine, Disodium Salt (ThermoFisher Scientific) was added. After 2 hours, the solvents were evaporated under high vacuum (35° C.) and residue partially dissolved in 10% methanol and transferred onto a C18 cartridge (Waters Corporation, Milford, MA). Increasing percentages of methanol were used for the elution. […] An enzymatic inhibition assay was designed using casein substrate.^82 Bovine alpha casein (Sigma-Aldrich, St. Louis, MO) was labeled with Alexa Fluor 647 Carboxylic Acid, Succinimidyl Ester (ThermoFisher Scientific, Waltham, MA) as described.^82 Briefly, the two were combined at 2.5 ug/mg label to protein ratio in 0.1M sodium bicarbonate for 15 minutes and labeled casein was separated from unbound label in a Sephadex G-25 (Sigma-Aldrich) column comprised of 90×5 mm packed beads in a glass Pasteur pipette, eluted with dPBS pH7.4 (ThermoFisher Scientific). The fast-moving band (casein-bound fluorophore) was collected in ˜0.4 ml volume. Concentration of resultant probe (casein-Alexa647 in PBS-azide) was estimated via spectrophotometry using Beer's law (Implen Nanophotometer, Implen, Inc. Westlake Village, CA).
(§1) Assays were optimized using ranges of 0.3-1000 μM unlabeled pepstatin, 100-500 nM pepstatin-Alexa647 or casein-Alexa647 probe, 0.003-3 U/μl porcine pepsin (Worthington Biochemical Corporation, Lakewood, NJ), and 5-37.5% DMSO (HIV protease inhibitor diluent) in 0.1 M HCl, pH 1 with 0.01% v/v Tween-20 in 20 μl volumes in 384-well black optical plates (Nunc, Roskilde, DK) and read on a BioTek Cytation 5 (BioTek Instruments, Winooski, VT) with far red FP filter cube (excitation/emission 620/680 nm). Unlabeled pepstatin dose-response curves were used to ensure that the assays were responsive to pepsin inhibition. […] Assays were performed twice with triplicate reactions read for five minutes and mean mP plotted against probe concentration (binding assay) or read at <2 minutes intervals over 30 minutes with mean mP of plotted over time (activity assay). Half maximal inhibitory concentration (IC50) of inhibitors were calculated from kinetic traces analyzed using an online tool (https://icekat.herokuapp.com/icekat)^83. mP was normalized to blank (absent inhibitor) to derive percent bound or activity.

porcine pepsin A = biological target: T2, porcine pepsin A (Sus scrofa, UniProt P00791); test: competitive binding assay, fluorescence polarization with pepstatin-Alexa647; conditions: 100 nM probe, 0.03 U/ul porcine pepsin A, 37.5% DMSO, 0.1 M HCl pH 1
T2 construct: purchased Worthington Biochemical Corporation
T2 sequence (P00791 60-385): as above
Experimental: To examine whether HIV protease inhibitors bound and inhibited pepsin, we developed assays based on fluorescence polarization which measures size-dependent molecular rotation thereby permitting detection of degradation, association and dissociation events^80. A competitive binding assay was designed employing pepstatin, an inhibitor of sub-nanomolar affinity^81. Pepstatin-Alexa647 was synthesized by dissolving 1 mg pepstatin A (Sigma-Aldrich) in a 50:50 mixture of dimethylformamide (DMF) and dimethylsulfoxide (DMS) followed by the addition of N,N,N′,N′-Tetramethyl-O—(N-succinimidyl)uronium tetrafluoroborate (0.6 mg) and trimethylamine (10 μL) DMF. The mixture was stirred for 1 hour, after which 1 mg Alexa Fluor 647 Cadaverine, Disodium Salt (ThermoFisher Scientific) was added. After 2 hours, the solvents were evaporated under high vacuum (35° C.) and residue partially dissolved in 10% methanol and transferred onto a C18 cartridge (Waters Corporation, Milford, MA). Increasing percentages of methanol were used for the elution. Pepstatin-Alexa647 eluted at 45% methanol. An enzymatic inhibition assay was designed using casein substrate.^82 Bovine alpha casein (Sigma-Aldrich, St. Louis, MO) was labeled with Alexa Fluor 647 Carboxylic Acid, Succinimidyl Ester (ThermoFisher Scientific, Waltham, MA) as described.^82 Briefly, the two were combined at 2.5 ug/mg label to protein ratio in 0.1M sodium bicarbonate for 15 minutes and labeled casein was separated from unbound label in a Sephadex G-25 (Sigma-Aldrich) column comprised of 90×5 mm packed beads in a glass Pasteur pipette, eluted with dPBS pH7.4 (ThermoFisher Scientific). The fast-moving band (casein-bound fluorophore) was collected in ˜0.4 ml volume. […]
as §1, with “nm).” for “nm). Unlabeled pepstatin dose-response curves were used to ensure that the assays were responsive to pepsin inhibition.”

Structure (SMILES)	bioavailability [1]	tolerability [2]	laryngeal histology, drug with saline (solvent), no pepsin ([3]; aerosol)	protection against pepsin-mediated laryngeal damage (histology) ([3]; aerosol, inhaled mass 0.93 mg/kg/day fosamprenavir, 12 mg/kg/day darunavir)	laryngeal histology, drug with saline (solvent), no pepsin ([3]; gavage)	protection against pepsin-mediated laryngeal damage (histology) ([3]; gavage, 20 mg/kg/day fosamprenavir (Lexiva), 8.6 mg/kg/day darunavir (Prezista))	protection against pepsin-mediated laryngeal damage (histology) ([3]; gavage, 20 mg/kg/day fosamprenavir (Lexiva), 8.6 mg/kg/day darunavir (Prezista), listed as Fosamprenavir)	protection against pepsin-mediated laryngeal damage (histology) ([3]; gavage, 20 mg/kg/day fosamprenavir (Lexiva), 8.6 mg/kg/day darunavir (Prezista), listed as Lexiva)	laryngeal histology, drug with saline (solvent), no pepsin ([3]; gavage, listed as Lexiva)	pharmacokinetics [4]	solubility [5]	inhibited pepsin (peptic activity) (porcine pepsin; 200 nM probe, 0.01 U/μL pepsin, 5% DMSO, 0.1 M HCl pH 1)	IC50 for pepsin (porcine pepsin; in vitro binding and inhibition assays, IC50 from kinetic traces)	side effects [2]	bound pepsin (competitive binding) (porcine pepsin A)
CC(C)CN(C[C@@H](OP(=O)(O)O)[C@H](Cc1ccccc1)NC(=O)O[C@H]1CCOC1)S(=O)(=O)c1ccc(N)cc1 [fosamprenavir, [(3S)-oxolan-3-yl] N-[(2S,3R)-4-[(4-aminophenyl)sulfonyl-(2-methylpropyl)amino]-1-phenyl-3-phosphonooxybutan-2-yl]carbamate]	improved bioavailability	favorable tolerability	normal histology	prevented pepsin-mediated laryngeal injury; also recorded: protected against pepsin-mediated laryngeal damage	normal histology	prevented pepsin-mediated laryngeal damage	prevented pepsin-mediated laryngeal damage; also recorded: protected against pepsin-mediated laryngeal damage	prevents pepsin-mediated airway epithelial damage	Normal-appearing respiratory epithelium	excellent pharmacokinetics	–	–	–	–	–
CC(C)(C)NC(=O)[C@@H]1C[C@@H]2CCCC[C@@H]2CN1C[C@@H](O)[C@H](Cc1ccccc1)NC(=O)[C@H](CC(N)=O)NC(=O)c1ccc2ccccc2n1 [saquinavir, (2S)-N-[(2S,3R)-4-[(3S,4aS,8aS)-3-(tert-butylcarbamoyl)-3,4,4a,5,6,7,8,8a-octahydro-1H-isoquinolin-2-yl]-3-hydroxy-1-phenylbutan-2-yl]-2-(quinoline-2-carbonylamino)butanediamide]	–	–	–	–	–	–	–	–	–	–	poor solubility	low micromolar	low micromolar range	QT prolongation, heart block, high blood lipids and liver problems	low micromolar
